Assay results published in patent US20070066512A1, “Methods and compositions using immunomodulatory compounds for the treatment of disorders associated with low plasma leptin levels” (priority 2005, published 2007).

How the values were obtained:
[1] = cited from earlier work; for interconversion of polymorphic form: aqueous solvent systems or higher relative humidities; for hygroscopicity of polymorphic form: crystalline form of 3-(4-amino-1-oxo-1,3 dihydro-isoindol-2-yl)-piperidene-2,6-dione
[2] = system: adiponectin mRNA; test: Northern blot of adiponectin mRNA in MSC-derived adipocytes; format: cell-based, Human; conditions: adipocytes treated with compound vs DMSO; GAPDH control unchanged
Procedure: (§1) Human Mesenchymal Stem Cell (MSC) and adipocyte differentiation media were obtained from Cambrex (Walkersville, Md.). MSCs were seeded in 24 well plates at 40,000 cells per well in MSC Basic Medium (MSCBM), supplemented with 10% serum and expanded for 7 days. At 100% of confluence, three cycles of induction/maintenance stimulated adipogetic differentiation. Each cycle consisted feeding MSCs with Adipogenic Induction Medium (AIM) for 3 days, followed by 1 day of culture in Adipogenic Maintenance Medium (AMM). AIM and AMM contained 10% serum, Pen-Sterep and L-Glu, supplemented with insulin, dexamethasone, indomethacin and IBMX, or insulin only. After 3 complete cycles of induction/maintenance, MSCs are cultured for 3 more days in AMM and analyzed.
(§2) To study the effects of immunomodulatory compounds on adipocyte differentiation, MSCs were differentiated in the presence of DMSO or varying concentrations of an immunomodulatory compound. DMSO and immunomodulatory compounds were added to the medium during the differentiation and maintenance steps. Phenotypic characterization of the cells for adipocyte markers, such as triglyceride content and adipokine secretion, was performed.
(§3) RNAs from MSC-derived adipocytes were isolated with RNeasy lipid tissue kit (Qiagen, Valencia, Calif.). […]

[3] = system: MSCs; test: MSC proliferation (BrdU incorporation assay); format: cell-based, Human; conditions: MSCs treated for 2 days vs DMSO
Procedure: (§4) MSC viability was assayed using cell proliferation kit II (XTT) (Roche, Indianapolis, Ind.). MSC proliferation was assayed using 5-bromo-2′-deoxy-uridine labeling and detection kit III (BrdU) (Roche, Indianapolis, Ind.). MSCs have been seeded in 96 well plates and expanded for 2 days in presence of DMSO or varying concentrations of an immunomodulatory compound. XTT and BrdU were added to the cells for 20 hours. The viability and proliferation of MSCs were assayed following manufacturer's instructions.

[4] = system: adipocytes differentiated from Human Mesenchymal Stem Cell (MSC); test: Triglyceride accumulation in MSC-derived adipocytes (microscopy, Oil Red O staining); format: cell-based; conditions: for triglyceride accumulation quantified by Oil Red O staining (FIG. 2B): cells cultured with compound vs DMSO
Procedure: as §1, §2
Fat content in adipocyte was quantified by Oil Red O staining. Cells were washed with PBS and fixed with 3.7% formaldehyde for 15 minutes. Lipid vacuoles were stained with 0.5% Oil Red O in 60% isopropanol for 30 minutes at 37° C. Cells were then washed three times with water and Oil Red O content was dissolved into 100% propanol. The optical density of the solution was measured at 510 nm.

[5] = system: MSCs; test: MSC viability (XTT assay); format: cell-based, Human; conditions: MSCs treated for 2 days vs DMSO
Procedure: as §4

[6] = system: adiponectin secretion in adipocytes; test: Adiponectin secretion of adipocytes (quantikine human adiponectin immunoassay); format: cell-based; conditions: adipocytes differentiated in presence of compound
Procedure: as §1
To study the effects of immunomodulatory compounds on adipocyte differentiation, MSCs were differentiated in the presence of DMSO or varying concentrations of an immunomodulatory compound. […]
Leptin and adiponectin were measured using the quantikine human leptin and human adiponectin immunoassay kits (R&D Systems, Minneapolis, Minn.). To measure leptin secretion, 100 μl of medium was collected from the cell plates, diluted 2 or 5 times depending on the collecting time during the differentiation process, and analyzed following the manufacturer's protocols. […] For adiponectin secretion, 50 μl of medium was collected and directly analyzed.

[7] = system: leptin mRNA; test: Northern blot of leptin mRNA in MSC-derived adipocytes; format: cell-based, Human; conditions: adipocytes treated with compound vs DMSO; GAPDH control unchanged
Procedure: as §1, §2, §3

[8] = system: leptin secretion in adipocytes; test: Leptin secretion of adipocytes (quantikine human leptin immunoassay); format: cell-based; conditions: for concentration giving maximum of dose dependent leptin secretion response: adipocytes differentiated in presence of compound; for dexamethasone induced leptin secretion (FIG. 3C): dexamethasone added to the cells for 15 hours at the end of differentiation
Procedure: as §1, §2
Leptin and adiponectin were measured using the quantikine human leptin and human adiponectin immunoassay kits (R&D Systems, Minneapolis, Minn.). To measure leptin secretion, 100 μl of medium was collected from the cell plates, diluted 2 or 5 times depending on the collecting time during the differentiation process, and analyzed following the manufacturer's protocols. Results were corrected for the dilution factor. For adiponectin secretion, 50 μl of medium was collected and directly analyzed.

SMILES | interconversion of polymorphic form [1] | level of adiponectin mRNAs (northern blot, FIG. 5) [2] | cell proliferation (BrdU incorporation, FIG. 6) [3] | triglyceride accumulation quantified by Oil Red O staining (FIG. 2B) [4] | cell viability (XTT, FIG. 6) [5] | adiponectin secretion vs cells differentiated in DMSO (FIG. 4) [6] | level of leptin mRNAs (northern blot, FIG. 5) [7] | concentration giving maximum of dose dependent leptin secretion response [8] | dexamethasone induced leptin secretion (FIG. 3C) [8] | hygroscopicity of polymorphic form [1] | further results
Nc1cccc2c1CN(C1CCC(=O)NC1=O)C2=O (centres unmarked) [Form B, 3-(4-amino-1-oxo-1,3 dihydro-isoindol-2-yl)-piperidene-2,6-dione] | converts to Form E in aqueous solvent systems |  |  |  |  |  |  |  |  |  | 
Nc1cccc2c1C(=O)N(C1CCC(=O)NC1=O)C2=O (centres unmarked) [1,3-dioxo-(2,6-dioxopiperidin-3-yl)-4-aminoisoindoline] |  | dose-dependent decrease | neither 1-oxo-(2,6-dioxopiperidin-3-yl)-4-aminoisoindoline nor 1,3-dioxo-(2,6-dioxopiperidin-3-yl)-4-aminoisoindoline caused significant change | no significant difference | neither 1-oxo-(2,6-dioxopiperidin-3-yl)-4-aminoisoindoline nor 1,3-dioxo-(2,6-dioxopiperidin-3-yl)-4-aminoisoindoline caused significant change | lower levels of adiponectin secretion | dose-dependently increase | 10 µM | enhanced dexamethasone induced leptin secretion |  | leptin secretion vs cells differentiated in DMSO (FIG. 3B) ([8]; adipocytes differentiated in presence of 0. 1, 1, 2.5, or 10 μM): a similar result was observed
Nc1cccc2c1CN(C1CCC(=O)NC1=O)C2=O (centres unmarked) [Form D, 3-(4-amino-1-oxo-1,3 dihydro-isoindol-2-yl)-piperidene-2,6-dione] | will typically convert to Form B when stressed at higher relative humidities |  |  |  |  |  |  |  |  | either weakly or not hygroscopic | 
Nc1cccc2c1CN(C1CCC(=O)NC1=O)C2=O (centres unmarked) [Form A, 3-(4-amino-1-oxo-1,3 dihydro-isoindol-2-yl)-piperidene-2,6-dione] |  |  |  |  |  |  |  |  |  | weakly or not hygroscopic | relative stability of polymorphic form ([1]; Form A: among anhydrous polymorphs, Form E: in aqueous solvent systems): most thermodynamically stable anhydrous polymorph
Nc1cccc2c1CN(C1CCC(=O)NC1=O)C2=O (centres unmarked) [1-oxo-(2,6-dioxopiperidin-3-yl)-4-aminoisoindoline] |  | dose-dependent decrease | neither 1-oxo-(2,6-dioxopiperidin-3-yl)-4-aminoisoindoline nor 1,3-dioxo-(2,6-dioxopiperidin-3-yl)-4-aminoisoindoline caused significant change | no significant difference | neither 1-oxo-(2,6-dioxopiperidin-3-yl)-4-aminoisoindoline nor 1,3-dioxo-(2,6-dioxopiperidin-3-yl)-4-aminoisoindoline caused significant change | lower levels of adiponectin secretion | dose-dependently increase | 25 µM | enhanced dexamethasone induced leptin secretion |  | ability of the cells to accumulate triglyceride (microscopy, FIG. 2A) ([4]; cells differentiated with compound vs DMSO, lipid vacuoles observed): does not alter the ability of the cells to accumulate triglyceride; leptin secretion vs cells differentiated in DMSO (FIG. 3A) ([8]; adipocytes differentiated in presence of 2.5, 10, 25, or 50 μM): secreted higher levels of leptin
Nc1cccc2c1CN(C1CCC(=O)NC1=O)C2=O (centres unmarked) [Form C, 3-(4-amino-1-oxo-1,3 dihydro-isoindol-2-yl)-piperidene-2,6-dione] | can convert to Form B at higher relative humidities |  |  |  |  |  |  |  |  | not hygroscopic below about 85% RH | 
